Measurements taken from patent publication US5202315A, “Cephalosporin compounds” (Lucky, Ltd., priority 1989, dated 1993).
≈ marks a conversion by molar mass, not a printed value. Where two headings read alike, the source gives them in different places.

What was measured:
[1] = In-vivo absorbency (plasma concentrations & pharmacokinetic parameters); design: species or system SD rat (male); conditions: plasma, SD male rat, iv 20 mg/kg; for half-life: rat, iv, 20 mg/kg
Source text: The blood samples from the femoral vein of the rats were taken every hour after administration, and analyzed by bio-assay(agar well method).
Tested animal: SD male Rat (220~340 g)

[2] = as above; design: species or system SD rat (male); conditions: plasma, SD male rat, iv 20 mg/kg, read-out: Plasma Conc.
[3] = tested on: Bacillus megaterium ATCC 9885; assay: Antibacterial activity, MIC; assay type: cell-based; conditions: Priestia megaterium, ATCC9885; ATCC 9885; agar two-fold dilution, 37° C., 20 hours; read-out: MIC
In short: (§1)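 Plates of Mueller-Hinton agar containing two-fold serial dilutions of compound were inoculated with 2 μl of test strain suspension (10^7 CFU per ml) and incubated for 20 hours at 37 °C.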

[4] = tested on: Proteus mirabilis ATCC 25933; assay: Antibacterial activity, MIC; assay type: cell-based; conditions: ATCC25933, ATCC 25933, agar two-fold dilution, 37° C., 20 hours, read-out: MIC
In short: as §1

[5] = tested on: Staphylococcus aureus ATCC 6538p; assay: Antibacterial activity, MIC; assay type: cell-based; conditions: ATCC6538P, ATCC 6538p, agar two-fold dilution, 37° C., 20 hours, read-out: MIC
In short: as §1

[6] = tested on: Bacillus cereus ATCC 11778; assay: Antibacterial activity, MIC; assay type: cell-based; conditions: ATCC11778, ATCC 11778, agar two-fold dilution, 37° C., 20 hours, read-out: MIC
In short: as §1

[7] = tested on: Escherichia coli ATCC 10536; assay: Antibacterial activity, MIC; assay type: cell-based; conditions: ATCC10536, agar two-fold dilution, 37° C., 20 hours
In short: as §1

[8] = tested on: Acinetobacter calcoaceticus ATCC 15473; assay: Antibacterial activity, MIC; assay type: cell-based; conditions: ATCC15473, ATCC 15473, agar two-fold dilution, 37° C., 20 hours, read-out: MIC
In short: as §1

[9] = tested on: Shigella flexneri ATCC 11836; assay: Antibacterial activity, MIC; assay type: cell-based; conditions: ATCC11836, agar two-fold dilution, 37° C., 20 hours
In short: as §1

[10] = tested on: Pseudomonas aeruginosa ATCC 27853; assay: Antibacterial activity, MIC; assay type: cell-based; conditions: ATCC27853, ATCC 27853, agar two-fold dilution, 37° C., 20 hours, read-out: MIC
In short: as §1

[11] = tested on: Providencia rettgeri ATCC 9250; assay: Antibacterial activity, MIC; assay type: cell-based; conditions: ATCC9250, agar two-fold dilution, 37° C., 20 hours
In short: as §1

[12] = tested on: Morganella morganii ATCC 8076h; assay: Antibacterial activity, MIC; assay type: cell-based; conditions: ATCC8076H, agar two-fold dilution, 37° C., 20 hours
In short: as §1

[13] = tested on: Streptococcus faecalis ATCC 29212; assay: Antibacterial activity, MIC; assay type: cell-based; conditions: Enterococcus faecalis, ATCC29212; ATCC 29212; agar two-fold dilution, 37° C., 20 hours; read-out: MIC
In short: as §1

[14] = tested on: Shigella sonnei ATCC 11060; assay: Antibacterial activity, MIC; assay type: cell-based; conditions: ATCC11060, ATCC 11060, agar two-fold dilution, 37° C., 20 hours, read-out: MIC
In short: as §1

[15] = tested on: Pseudomonas aeruginosa ATCC 25619; assay: Antibacterial activity, MIC; assay type: cell-based; conditions: ATCC25619, ATCC 25619, agar two-fold dilution, 37° C., 20 hours, read-out: MIC
In short: as §1

[16] = tested on: Serratia marcescens ATCC 27117; assay: Antibacterial activity, MIC; assay type: cell-based; conditions: ATCC27117, ATCC 27117, agar two-fold dilution, 37° C., 20 hours, read-out: MIC
In short: as §1

[17] = tested on: Enterobacter cloacae ATCC 27508; assay: Antibacterial activity, MIC; assay type: cell-based; conditions: ATCC27508, ATCC 27508, agar two-fold dilution, 37° C., 20 hours, read-out: MIC
In short: as §1

[18] = tested on: Klebsiella pneumoniae ATCC 10031; assay: Antibacterial activity, MIC; assay type: cell-based; conditions: ATCC10031, ATCC 10031, agar two-fold dilution, 37° C., 20 hours, read-out: MIC
In short: as §1

[19] = tested on: Proteus vulgaris ATCC 6059; assay: Antibacterial activity, MIC; assay type: cell-based; conditions: ATCC6059, ATCC 6059, agar two-fold dilution, 37° C., 20 hours, read-out: MIC
In short: as §1

[20] = tested on: Enterobacter aerogenes ATCC 29751; assay: Antibacterial activity, MIC; assay type: cell-based; conditions: Klebsiella aerogenes, ATCC29751; ATCC 29751; agar two-fold dilution, 37° C., 20 hours; read-out: MIC
In short: as §1

[21] = tested on: Salmonella typhimurium ATCC 14028; assay: Antibacterial activity, MIC; assay type: cell-based; conditions: Salmonella enterica; ATCC 14028; agar two-fold dilution, 37° C., 20 hours; read-out: MIC
In short: as §1

[22] = tested on: Citrobacter freundii ATCC 8090; assay: Antibacterial activity, MIC; assay type: cell-based; conditions: ATCC8090, ATCC 8090, agar two-fold dilution, 37° C., 20 hours, read-out: MIC
In short: as §1

[23] = tested on: Staphylococcus aureus ATCC 10537; assay: Antibacterial activity, MIC; assay type: cell-based; conditions: ATCC10537, ATCC 10537, agar two-fold dilution, 37° C., 20 hours, read-out: MIC
In short: as §1

[24] = tested on: Pseudomonas aeruginosa ATCC 10145; assay: Antibacterial activity, MIC; assay type: cell-based; conditions: ATCC10145, ATCC 10145, agar two-fold dilution, 37° C., 20 hours, read-out: MIC
In short: as §1

[25] = tested on: Micrococcus luteus ATCC 9341; assay: Antibacterial activity, MIC; assay type: cell-based; conditions: ATCC9341, ATCC 9341, agar two-fold dilution, 37° C., 20 hours, read-out: MIC
In short: as §1

[26] = tested on: Escherichia coli ATCC 25922; assay: Antibacterial activity, MIC; assay type: cell-based; conditions: ATCC25922, agar two-fold dilution, 37° C., 20 hours
In short: as §1

[27] = tested on: Staphylococcus epidermidis ATCC 12228; assay: Antibacterial activity, MIC; assay type: cell-based; conditions: ATCC12228, ATCC 12228, agar two-fold dilution, 37° C., 20 hours, read-out: MIC
In short: as §1

Pseudomonas aeruginosa = assay: Antibacterial activity against clinically isolated strains, MIC; assay type: cell-based; conditions: 54 clinical isolates, broth microdilution test
[28] = tested on: Staphylococcus aureus methicillin resistant; assay: as above; assay type: cell-based; conditions: methicillin resistant, 7 clinical isolates, broth microdilution test
[29] = tested on: Staphylococcus aureus methicillin susceptible; assay: as above; assay type: cell-based; conditions: methicillin susceptible, 42 clinical isolates, broth microdilution test
Escherichia coli = assay: as above; assay type: cell-based; conditions: 38 clinical isolates, broth microdilution test
Klebsiella pneumoniae = assay: as above; assay type: cell-based; conditions: 10 clinical isolates, broth microdilution test

Structure (SMILES)	MIC [3]	MIC [4]	MIC [5]	MIC [6]	MIC [7]	MIC [8]	MIC [9]	MIC [10]	MIC [11]	MIC [12]	MIC [13]	MIC [14]	MIC [15]	MIC [16]	MIC [17]	MIC [18]	MIC [19]	MIC [20]	MIC [21]	MIC [22]	further results
CC[n+]1c(N)cc(N)nc1SCC1=C(C(=O)[O-])N2C(=O)C(NC(=O)/C(=N\OCC(=O)O)c3csc(N)n3)C2SC1 (centres unmarked) [Compound I-8]	0.5 mg/L (≈ 0.82 µM)	0.031 mg/L (≈ 0.0508 µM)	4 mg/L (≈ 6.56 µM)	64 mg/L (≈ 105 µM)	0.031 mg/L (≈ 0.0508 µM)	8 mg/L (≈ 13.1 µM)	0.016 mg/L (≈ 0.0262 µM)	2 mg/L (≈ 3.28 µM)	0.016 mg/L (≈ 0.0262 µM)	≤ 0.008 mg/L	> 128 mg/L	0.031 mg/L (≈ 0.0508 µM)	2 mg/L (≈ 3.28 µM)	0.031 mg/L (≈ 0.0508 µM)	≤ 0.008 mg/L	0.016 mg/L (≈ 0.0262 µM)	0.016 mg/L (≈ 0.0262 µM)	1 mg/L (≈ 1.64 µM)	0.063 mg/L (≈ 0.103 µM)	0.031 mg/L (≈ 0.0508 µM)	concentration at 1 h ([1]; 60 min, read-out: Plasma Conc.): 8.7 µg/mL; concentration at 2 h ([1]; 120 min, read-out: Plasma Conc.): 2.7 µg/mL; AUC ([1]; two compartment model): 43.4 µg·h/mL; half-life ([1]; two compartment model, read-out: T1/2 (α)): 6 min; half-life ([1]; two compartment model, read-out: T1/2 (β)): 32 min; concentration at 1 min ([2]; 1 min): 121 µg/mL; concentration at 2.5 min ([2]; 2.5 min): 92 µg/mL; concentration at 5 min ([2]; 5 min): 64 µg/mL; concentration at 10 min ([2]; 10 min): 48 µg/mL; concentration at 20 min ([2]; 20 min): 36 µg/mL; concentration at 40 min ([2]; 40 min): 15 µg/mL; MIC [23]: 2 mg/L (≈ 3.28 µM); MIC [24]: 4 mg/L (≈ 6.56 µM); MIC [25]: 0.13 mg/L (≈ 0.213 µM); MIC [26]: 0.031 mg/L (≈ 0.0508 µM); MIC [27]: 1 mg/L (≈ 1.64 µM)
CC(O/N=C(\C(=O)NC1C(=O)N2C(C(=O)[O-])=C(CSc3nc(N)cc(N)[n+]3N)CSC12)c1csc(N)n1)C(=O)O (centres unmarked) [Compound I-14]	0.5 mg/L (≈ 0.819 µM)	0.031 mg/L (≈ 0.0508 µM)	4 mg/L (≈ 6.55 µM)	64 mg/L (≈ 105 µM)	0.031 mg/L (≈ 0.0508 µM)	2 mg/L (≈ 3.28 µM)	0.031 mg/L (≈ 0.0508 µM)	1 mg/L (≈ 1.64 µM)	≤ 0.008 mg/L	≤ 0.008 mg/L	> 128 mg/L	0.016 mg/L (≈ 0.0262 µM)	1 mg/L (≈ 1.64 µM)	0.031 mg/L (≈ 0.0508 µM)	≤ 0.008 mg/L	0.031 mg/L (≈ 0.0508 µM)	0.031 mg/L (≈ 0.0508 µM)	0.5 mg/L (≈ 0.819 µM)	0.13 mg/L (≈ 0.213 µM)	0.031 mg/L (≈ 0.0508 µM)	MIC50 (Pseudomonas aeruginosa): 1 mg/L (≈ 1.64 µM); MIC90 (Pseudomonas aeruginosa; read-out: MIC 90%): 4 mg/L (≈ 6.55 µM); MIC50 [28]: > 128 mg/L; MIC90 ([28]; read-out: MIC 90%): > 128 mg/L; MIC50 [29]: 4 mg/L (≈ 6.55 µM); MIC90 ([29]; read-out: MIC 90%): 4 mg/L (≈ 6.55 µM); MIC50 (Escherichia coli): 0.031 mg/L (≈ 0.0508 µM); MIC90 (Escherichia coli): 0.063 mg/L (≈ 0.103 µM); MIC [23]: 2 mg/L (≈ 3.28 µM); MIC [24]: 2 mg/L (≈ 3.28 µM); MIC [25]: 0.5 mg/L (≈ 0.819 µM); MIC [26]: 0.031 mg/L (≈ 0.0508 µM); MIC [27]: 1 mg/L (≈ 1.64 µM); MIC50 (Klebsiella pneumoniae): 0.031 mg/L (≈ 0.0508 µM); MIC90 (Klebsiella pneumoniae; read-out: MIC 90%): 0.063 mg/L (≈ 0.103 µM)
